Reference: article PMC7279231 (International Journal of Molecular Sciences, 2020)
Like-named read-outs stand apart in the source and are kept apart here.

Legend:
HepG2 cells [1] = assay: NRU assay (lysosomal activity), HepG2; type: cell-based, human
Experimental: (§1) The human hepatoma cell line (HepG2) was purchased from the American Type Culture Collection (ATCC HB-8065). These cells were cultured in Minimum Essential Medium Eagle (MEME) (ATCC). The murine fibroblast cell line (Balb/c 3T3 clone A31) was purchased from the American Type Culture Collection (ATCC CCL-163), and the cells were cultured in Dulbecco’s Modified Eagle’s Medium (DMEM) (ATCC). The media were supplemented with 10% BCS (Balb/c 3T3), 10% FBS (HepG2), 1% L-glutamine, and 1% antibiotic solution. The cells were maintained in 75-cm^2 cell culture flasks (NUNC, Roskilde, Denmark) in a humidified incubator, NuAire (Plymouth, MN, USA) at 37 °C and 5% CO2. The medium was refreshed every two days and the cells were trypsinized by 0.25% trypsin–0.02% EDTA after reaching 70–80% confluence. Then, cell suspensions at a density of 2 × 10^5 cells/mL (HepG2) and 5 × 10^4 cells/mL (Balb/c 3T3) were transferred to 96-well plates (100 μL/well) and incubated for 24 h before the exposure to the studied compounds.
(§2) As a control, cultured cells were grown in the absence of the studied compounds. Each concentration was tested in six replicates in three independent experiments. Cytotoxicity was assessed after 72 h of cell exposure to the compounds in darkness. The medium was not changed during the incubation time.
(§3) NRU assay. This method is based on staining living cells with neutral red which readily diffuses through the plasma membrane and accumulates in lysosomes. After the incubation, the medium containing the drug was removed, and the cells were washed with PBS. Then, 100 μL/well of NR solution (50 μg/mL) was added for 3 h. After this time, the cells were washed with PBS. The dye from viable cells was released by extraction with a mixture of acetic acid, ethanol, and water (1:50:49, v:v:v). After 10 min of shaking, the absorbance of the dissolved NR was measured using a Synergy HTX multi-mode reader (BioTek® Instruments Inc., Winooski, VT, USA) at 540 nm using a blank as a reference. Cytotoxicity was expressed as a percentage of the negative control (0.1% DMSO).
(§4) The study was performed in three independent experiments. […] Assessment of the cytotoxicity data used a one-way analysis of variance (ANOVA) followed by Dunnett’s post-hoc test, which was applied to determine significance relative to the negative control. The cytotoxicity concentration (IC20 and IC50) necessary for 20% and 50% inhibition of cell viability, respectively, by the drug was calculated using GraphPad Prism 5.0. Statistical comparisons among IC50 values were performed by the analysis of variance (ANOVA) followed by the Tukey test, and differences were considered statistically significant at p ≤ 0.05.

HepG2 cells [2] = assay: MTT assay (mitochondrial activity), HepG2; type: cell-based, human
Experimental: as §1, §2
(§5) MTT assay. The metabolic activity of living cells was assessed by the measurement of the activity of dehydrogenases. After incubation of the cells with the study compound, 10 μL of the MTT solution (5 mg/mL in phosphate buffered saline (PBS)) was added to each well of the 96-well plate and incubated. After 3 h, the MTT solution was removed, and intracellular formazan crystals were dissolved in 100 μL DMSO. The plate was shaken for 15 min at room temperature and transferred to a microplate reader (Synergy HTX multi-mode reader (BioTek® Instruments Inc., Winooski, VT, USA)) to measure the absorbance at 570 nm, using a blank as a reference. Cytotoxicity was expressed as a percentage of the negative control (0.1% DMSO).
as §4

Balb/c 3T3 fibroblasts [3] = assay: NRU assay (lysosomal activity), Balb/c 3T3; type: cell-based, murine
Experimental: as §1, §2, §3, §4

Balb/c 3T3 fibroblasts [4] = assay: MTT assay (mitochondrial activity), Balb/c 3T3; type: cell-based, murine
Experimental: as §1, §2, §5, §4

Balb/c 3T3 fibroblasts [5] = assay: LDH leakage assay (cellular membrane integrity), Balb/c 3T3; type: cell-based, murine
Experimental: as §1, §2
(§6) LDH leakage assay. The integrity of the plasma membrane was assessed through the test of lactate dehydrogenase (LDH) release, which was monitored using the commercially available Cytotoxicity Detection Kit (LDH) (Roche Diagnostics, Warsaw, Poland). The medium (100 μL/well) without cells was transferred into the corresponding wells of an optically clear 96-well flat-bottom microplate, and 100 μL of reaction mixture was added to each well. Then, the plates were incubated for 30 min at room temperature in darkness. After that time, 50 μL/well of 1 M HCl was added to stop the reaction. The absorbance was measured at 492 nm in a microplate reader (Synergy HTX multi-mode reader (BioTek® Instruments Inc., Winooski, VT, USA)) using a blank as a reference.
as §4

Balb/c 3T3 fibroblasts [6] = assay: TPC assay (total protein content), Balb/c 3T3; type: cell-based, murine
Experimental: as §1, §2
(§7) TPC assay. The assay was based upon staining total cellular protein (proliferation). After the incubation, the medium containing drug was removed and 100 μL of Coomassie brilliant blue R-250 dye was added to each well. The plate was shaken for 10 min. Then, the stain was removed and the cells were rinsed twice with 100 μL of washing solution (glacial acetic acid/ethanol/water, 5:10:85, v:v:v). After that, 100 μL of the desorbing solution (1 M potassium acetate) was added, and plates were shaken again for 10 min. The absorbance was measured at 595 nm in a microplate reader (Synergy HTX multi-mode reader (BioTek® Instruments Inc., Winooski, VT, USA)) using a blank as a reference. Cytotoxicity was expressed as a percentage of the negative control (0.1% DMSO).
as §4

HepG2 cells [7] = assay: LDH leakage assay (cellular membrane integrity), HepG2; type: cell-based, human
Experimental: as §1, §2
as §6, with “reference. […]” for “reference.”

HepG2 cells [8] = assay: TPC assay (total protein content), HepG2; type: cell-based, human
Experimental: as §1, §2, §7, §4

[9] = cited from earlier work
[10] = system: human cancer cells (breast, bladder, colorectal cancer cell lines, acute myelogenous leukemia, osteosarcoma cells); parameters: method as in PMID 26286663; settings: cited from earlier work
HepG2 cells [11] = assay: Cytotoxicity over the MTT, NRU, TPC and LDH assays, HepG2; type: cell-based, human; settings: HepG2, up to 1 μM, Figure S5
Experimental: as §1, with “The medium was refreshed every two days and the cells were trypsinized by 0.25% trypsin–0.02% EDTA after reaching 70–80% confluence. Then, cell suspensions at a density of 2 × 10^5 cells/mL (HepG2) and 5 × 10^4 cells/mL (Balb/c 3T3) were transferred to 96-well plates (100 μL/well) and incubated for 24 h before the exposure to the studied compounds.” left out
(§8) As a control, cultured cells were grown in the absence of the studied compounds. […] Cytotoxicity was assessed after 72 h of cell exposure to the compounds in darkness. […]
(§9) MTT assay. The metabolic activity of living cells was assessed by the measurement of the activity of dehydrogenases. […] The plate was shaken for 15 min at room temperature and transferred to a microplate reader (Synergy HTX multi-mode reader (BioTek® Instruments Inc., Winooski, VT, USA)) to measure the absorbance at 570 nm, using a blank as a reference. Cytotoxicity was expressed as a percentage of the negative control (0.1% DMSO).
(§10) NRU assay. […] Cytotoxicity was expressed as a percentage of the negative control (0.1% DMSO). […]

Balb/c 3T3 fibroblasts [12] = assay: Cytotoxicity over the MTT, NRU, TPC and LDH assays, Balb/c 3T3; type: cell-based, murine; settings: Balb/c 3T3, up to 1 μM, Figure S5
Experimental: as §1, with “The medium was refreshed every two days and the cells were trypsinized by 0.25% trypsin–0.02% EDTA after reaching 70–80% confluence. Then, cell suspensions at a density of 2 × 10^5 cells/mL (HepG2) and 5 × 10^4 cells/mL (Balb/c 3T3) were transferred to 96-well plates (100 μL/well) and incubated for 24 h before the exposure to the studied compounds.” left out
as §8, §9, §10

[13] = HepG2, NRU, 72 h exposure, mean (n = 3) ± SD
[14] = HepG2, MTT, 72 h exposure, mean (n = 3) ± SD
[15] = Balb/c 3T3, NRU, 72 h exposure, mean (n = 3) ± SD
[16] = Balb/c 3T3, MTT, 72 h exposure, mean (n = 3) ± SD
[17] = Balb/c 3T3, LDH, 72 h exposure, mean (n = 3) ± SD
[18] = Balb/c 3T3, TPC, 72 h exposure, mean (n = 3) ± SD
[19] = HepG2, TPC, 72 h exposure, mean (n = 3) ± SD

Work on `N.N.[Cl][Pt][Cl]` [Cisplatin, cis-diamminedichloroplatinum(II)] yielded an IC20 (HepG2 cells [1]; [13]) of under 0.1 nM, an IC50 (HepG2 cells [1]; [13]) of over 1000 nM and an IC20 (HepG2 cells [2]; [14]) of under 0.1 nM. The IC50 (HepG2 cells [2]; [14]) was over 1000 nM, the IC20 (Balb/c 3T3 fibroblasts [3]; [15]) was over 1000 nM and the IC50 (Balb/c 3T3 fibroblasts [3]; [15]) was over 1000 nM. For the same compound, the IC20 (Balb/c 3T3 fibroblasts [4]; [16]) was over 1000 nM, the IC50 (Balb/c 3T3 fibroblasts [4]; [16]) was over 1000 nM and the IC20 (Balb/c 3T3 fibroblasts [5]; [17]) was over 1000 nM. For the same compound, the IC50 (Balb/c 3T3 fibroblasts [5]; [17]) was over 1000 nM, the IC20 (Balb/c 3T3 fibroblasts [6]; [18]) was over 1000 nM and the IC50 (Balb/c 3T3 fibroblasts [6]; [18]) was over 1000 nM. The IC50 (HepG2 cells [7]; HepG2, LDH, 72 h exposure, mean (n = 3) ± SD) was 10 ± 1 nM, the IC20 (HepG2 cells [8]; [19]) was under 0.1 nM and the IC50 (HepG2 cells [8]; [19]) was over 1000 nM.
In the case of `Clc1ccc(COC(Cn2ccnc2)c2ccc(Cl)cc2Cl)c(Cl)c1` (stereo not shown) [Miconazole, 1-[2-(2,4-dichlorobenzyloxy)-2-(2,4-dichlorophenyl)ethyl]-1H-imidazole], the solubility ([9]; ethanol) is listed as “soluble”, the solubility ([9]; methanol) is listed as “hardly soluble” and the solubility ([9]; water) is listed as “practically insoluble”. The “concentration inhibiting the proliferation of human cancer cells” value [10] was at most 10 µM, the “toxicity to the cell line (in words)” value (HepG2 cells [11]) was “not toxic” and the “toxicity to the cell line (in words)” value (Balb/c 3T3 fibroblasts [12]) was “not toxic”.
In the case of `O=[N+]([O-])[O-].[Ag+]` [AgNO3, Silver nitrate], the IC20 (HepG2 cells [1]) is reported as over 1000 nM, the IC50 (HepG2 cells [1]) is reported as over 1000 nM and the IC20 (HepG2 cells [2]) is reported as over 1000 nM. It also gave an IC50 (HepG2 cells [2]) of over 1000 nM, an IC20 (Balb/c 3T3 fibroblasts [3]) of over 1000 nM and an IC50 (Balb/c 3T3 fibroblasts [3]) of over 1000 nM. It also gave an IC20 (Balb/c 3T3 fibroblasts [4]) of over 1000 nM, an IC50 (Balb/c 3T3 fibroblasts [4]) of over 1000 nM and an IC20 (Balb/c 3T3 fibroblasts [5]) of over 1000 nM. The IC50 (Balb/c 3T3 fibroblasts [5]) was over 1000 nM, the IC20 (Balb/c 3T3 fibroblasts [6]) was over 1000 nM and the IC50 (Balb/c 3T3 fibroblasts [6]) was over 1000 nM. For the same compound, the IC20 (HepG2 cells [7]) was over 1000 nM, the IC50 (HepG2 cells [7]) was over 1000 nM and the IC20 (HepG2 cells [8]) was over 1000 nM. For the same compound, the IC50 (HepG2 cells [8]) was over 1000 nM.
